The test system of experiment [1] is mesenteric vessels. Nature of the experiment: Histomorphometry of mesenteric vessels (media wall:lumen ratio, trichrome ECM) in angiotensin II-infused rats. It is filed as in vivo, Sprague Dawley rats. As to the method:
(§1) Rats were randomized to receive minipumps filled vehicle (0.15 M NaCl, 1 mmol/l acetic acid) either with or without angiotensin II (58 ng/min), as previously described (Cao Z et col. Kidney Int 58:2437-2451, 2000).
Histochemistry and immunohistochemistry: Histological studies of vascular architecture were performed in a subset of animals (n=8/group). Animals in this subgroup were anesthetized with pentobarbital sodium (Nembutal, Bomac Laboratories, Asquith, Australia) and vessels were perfused at arterial pressure with 10% neutral buffered formalin via an intra-aortic cannula. Tissues were then prepared as previously described (Cooper M E et col.; Diabetes 43:1221-1228,1994). In brief, mesenteric vessels were placed in ice cold phosphate buffer where fat, connective tissue and veins were removed by blunt dissection. The resultant vessel preparation was then embedded in paraffin. Sections were then either histochemically or immunohistochemically stained. […]
Quantification of histopathology: The proportion of vessel wall occupied by the media was identified by immunolabelling for α-smooth muscle actinand the ratio of the wall:lumen quantified using of a video-imaging system (Video Pro 32, Leading Edge, Bedford Park, South Australia, Australia), connected to a light microscope (Zeiss, Oberkocken, Germany) with photographic attachment (Axiophot, Zeiss, Oberkocken, Germany). Using this device, the media (areas stained with the anti-actin antibody) and corresponding lumenal areas were determined in a median of 20 (range 10-35) vessels per animal and expressed as wall:lumen ratio, as previously described in other models of vascular hypertrophy (Kakinuma Yet col.; Kidney Int 42:46-55., 1992).
Quantification of ECM was performed on trichrome-stained sections by calculating the proportion of area occupied by ECM using computer-assisted image analysis as previously described (Lehr H A, et col. J Histochem Cytochem 45:1559-1565, 1997). […]

Experiment [2] concerns Transforming growth factor-β1 (TGF-β1). Nature of the experiment: Quantitative real-time RT-PCR of mesenteric vessel TGF-β1 gene expression. In kind it is in vivo, Sprague Dawley rats. The following applies: mesenteric vessel mRNA, compared with untreated counterparts also subjected to angiotensin II-infusion. Here is the method: as §1
(§2) RNA Extraction and cDNA synthesis Frozen mesenteric vascular tissue, stored at −80° C. was homogenized (Ultra-Turrax, Janke and Kunkel, Staufen, Germany) and total RNA was isolated by the acid guanidinium thiocyanate-phenol-chloroform extraction method (Chomczynski P, Sacchi N; Anal Biochem 162:156-159,1987). The purified RNA was dissolved in sterile water, quantified spectrophotometrically and its concentration adjusted to 1 μg/μl. […]
(§3) Quantitative Real Time RT-PCR: Transforming growth factor-β1 (TGF-β1) and platelet-derived growth factor (PDGF) gene expression was quantified by real-time RT-PCR using sequence specific primers as previously reported by our group (Ahola H, et col.; American Journal of Pathology 155:907-913,1999). […] Both probes included a fluorescence reporter (6-carboxyfluorescein [FAM]) at the 5′-end and a fluorescent quencher (6-carboxytetramethylrhodamine [TAMRA]) at the 3′-end. For the relative quantification of the target gene and the endogenous reference 18S ribosomal RNA (18S), real-time quantitative RT-PCR was performed using an GeneAmp 5700 Sequence Detector (PE Biosystems, Foster City, Calif.) according to the manufacturer's instructions. […]
Background: Quantitative PCR measures a nucleic acid by following its amplification.

The subject of experiment [3] is platelet-derived growth factor (PDGF). Nature of the experiment: Quantitative real-time RT-PCR of mesenteric vessel PDGF gene expression. It is filed as in vivo, Sprague Dawley rats. The following applies: mesenteric vessel mRNA, angiotensin II infused animals. As to the method: as §1, §2, §3
In experiment [4] the test system is angiotensin II-infused rats. Briefly: Angiotensin II infusion in rats: systolic blood pressure and mesenteric vessel weight. The following applies: 60 mg/kg daily gavage, 12 days.
Setting [5] is: trichrome stained sections, 60 mg/kg daily.

Structures are written as SMILES.

On to `Cc1ccc(NC(=O)c2ccc(CN3CCN(C)CC3)cc2)cc1Nc1nccc(-c2cccnc2)n1` [Imatinib, N-{5-[4-(4-methyl-piperazino-methyl)-benzoylamido]-2-methylphenyl}-4-(3-pyridyl)-2-pyrimidine-amine], for which the “media wall:lumen ratio” value in experiment [1] (60 mg/kg daily gavage, 12 days, p<0.001) worked out at 0.4. Also, in experiment [1] (setting [5]), the “extent of ECM expansion” value is listed as “significantly reduced” and the media hypertrophy result is given as “significantly reduced”. Moreover, the TGF-β expression entry in experiment [2] is recorded as “further increase”. Further, in experiment [3], the PDGF gene expression result is “unaffected”. This compound also had a systolic blood pressure in experiment [4] (angiotensin II (58 ng/min) infused rats, tail-cuff, mean±SE, stated as no effect) of 205±10 mmHg. The same compound returned a mesenteric weight in experiment [4] (animals receiving angiotensin II, p<0.001, significantly reduced) of 42 mg.

(Values after patent publication US20050124624A1, “4-(4-methylpiperazin-1-ylmethyl)-n-[4-methyl-3-(4-pyridin-3-yl)pyrimidin-2-yl-amino)phenyl]-benzamide for threating ang ii-mediated diseases” (priority 2002, published 2005).)
